ChEMBL document CHEMBL1201862, “PubChem BioAssay data set” (2004)
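All cell lines were grown in 96-well plates and treated with compound for 48 hours. GI50 marks 50% less growth.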 Calls of active or inactive are those of the source. No stated cut-off is given here; in the data, active = GI50 up to about 1.1 µM and inactive = higher.

Key:
Assay in all cases: NCI-60 cell line screen, 48 h
786-0 = tested on: 786-0
A549 = tested on: A549
COLO 205 = tested on: COLO 205
HCT-116 = tested on: HCT-116
HL-60 = tested on: HL-60
IGROV-1 = tested on: IGROV-1
KM12 = tested on: KM12
MOLT-4 = tested on: MOLT-4
OVCAR-4 = tested on: OVCAR-4
OVCAR-8 = tested on: OVCAR-8
SF-268 = tested on: SF-268
SK-MEL-2 = tested on: SK-MEL-2
SK-OV-3 = tested on: SK-OV-3
SR = tested on: SR
TK-10 = tested on: TK-10
UO-31 = tested on: UO-31
RXF 393 = tested on: RXF 393

Measured: GI50

CCC1(N=[N+]=[N-])C(=O)c2ccccc2N(c2ccccc2)C1=O (stereo not drawn)
inactive: 786-0 > 100 µM | A549 > 100 µM | COLO 205 > 100 µM | HCT-116 > 100 µM | HL-60 > 100 µM | IGROV-1 > 100 µM | KM12 > 100 µM | MOLT-4 > 100 µM | OVCAR-4 > 100 µM | OVCAR-8 > 100 µM | SF-268 > 100 µM | SK-MEL-2 > 100 µM | SK-OV-3 > 100 µM | SR > 100 µM | TK-10 > 100 µM | UO-31 > 100 µM

COC(=O)C1(C(=O)OC)CC2c3c(c4ccccc4n3C)CC(C1=O)N2Cc1ccccc1 (stereo not drawn)
inactive: 786-0 > 100 µM | A549 > 100 µM | COLO 205 > 100 µM | HCT-116 > 100 µM | HL-60 96.8 µM | IGROV-1 > 100 µM | KM12 > 100 µM | MOLT-4 > 100 µM | OVCAR-4 76.6 µM | OVCAR-8 > 100 µM | RXF 393 29.8 µM | SF-268 > 100 µM | SK-MEL-2 > 100 µM | SK-OV-3 > 100 µM | TK-10 > 100 µM | UO-31 > 100 µM

Cc1ccc2[nH]c(=O)c(C(C#N)c3ccccc3)nc2c1 (stereo not drawn)
inactive: 786-0 41.8 µM | A549 35.5 µM | COLO 205 27 µM | HCT-116 33.7 µM | IGROV-1 34.2 µM | KM12 32 µM | MOLT-4 20.9 µM | OVCAR-4 30.1 µM | RXF 393 23 µM | SF-268 32.6 µM | SK-MEL-2 20 µM | SK-OV-3 50.7 µM | SR 71.3 µM | TK-10 > 100 µM | UO-31 27.9 µM

Cc1[nH]c2ccccc2c1C1Cc2ccccc2N1C(=O)/C=C/C(=O)O (stereo not drawn)
inactive: 786-0 > 100 µM | A549 > 100 µM | COLO 205 > 100 µM | HCT-116 > 100 µM | HL-60 > 100 µM | IGROV-1 > 100 µM | KM12 > 100 µM | MOLT-4 > 100 µM | OVCAR-4 > 100 µM | OVCAR-8 > 100 µM | RXF 393 > 100 µM | SF-268 > 100 µM | SK-MEL-2 > 100 µM | SK-OV-3 > 100 µM | SR > 100 µM | TK-10 > 100 µM | UO-31 > 100 µM

O=C(CSc1nnc(-c2ccc(/N=C\c3ccc(Cl)cc3)cc2)o1)Nc1cccc(Cl)c1
inactive: 786-0 > 100 µM | A549 > 100 µM | COLO 205 > 100 µM | HCT-116 > 100 µM | HL-60 > 100 µM | KM12 > 100 µM | MOLT-4 > 100 µM | OVCAR-4 > 100 µM | OVCAR-8 > 100 µM | RXF 393 80.5 µM | SF-268 > 100 µM | SK-MEL-2 > 100 µM | SK-OV-3 > 100 µM | SR > 100 µM | TK-10 > 100 µM | UO-31 > 100 µM

S=C(Nc1ccccc1)N(/N=C/C=C/c1ccccc1)c1nnc(-c2ccccc2)c(-c2ccccc2)n1
inactive: 786-0 > 100 µM | A549 38.6 µM | COLO 205 > 100 µM | HL-60 22.4 µM | IGROV-1 > 100 µM | KM12 82.4 µM | MOLT-4 32.3 µM | OVCAR-4 30.5 µM | OVCAR-8 > 100 µM | RXF 393 50.9 µM | SF-268 30.5 µM | SK-MEL-2 56.8 µM | SK-OV-3 > 100 µM | TK-10 95.3 µM | UO-31 24.7 µM

Cc1ccccc1N1C(=O)/C(=C/c2ccc(N(CCC#N)CCC#N)cc2)N=C1c1cc([N+](=O)[O-])ccc1Cl
inactive: 786-0 84.5 µM | COLO 205 18.8 µM | HL-60 35 µM | IGROV-1 > 100 µM | KM12 > 100 µM | MOLT-4 25.5 µM | OVCAR-4 > 100 µM | SF-268 > 100 µM | SK-MEL-2 > 100 µM | SK-OV-3 > 100 µM | SR 7.19 µM | UO-31 > 100 µM

CCOC(=O)NC(=O)c1cn(CCN2CCN(C(=O)NCCCCCCNC(=O)N3CCN(CCn4cc(C(=O)NC(=O)OCC)c(=O)n(CCN(CC)CC)c4=O)CC3)CC2)c(=O)n(CCC(CC)CC)c1=O
inactive: 786-0 > 100 µM | A549 > 100 µM | COLO 205 > 100 µM | HCT-116 > 100 µM | HL-60 > 100 µM | IGROV-1 > 100 µM | KM12 > 100 µM | OVCAR-4 > 100 µM | OVCAR-8 > 100 µM | RXF 393 > 100 µM | SF-268 > 100 µM | SK-MEL-2 > 100 µM | SK-OV-3 > 100 µM | SR > 100 µM | TK-10 > 100 µM | UO-31 > 100 µM

O=[N+]([O-])c1cc(Cl)ccc1OCc1ccccc1
inactive: 786-0 59 µM | A549 26.2 µM | COLO 205 > 100 µM | HCT-116 55.6 µM | HL-60 28.4 µM | IGROV-1 > 100 µM | KM12 > 100 µM | MOLT-4 27.9 µM | OVCAR-4 > 100 µM | OVCAR-8 > 100 µM | RXF 393 47.3 µM | SF-268 > 100 µM | SK-MEL-2 > 100 µM | SK-OV-3 > 100 µM | SR 26.4 µM | TK-10 > 100 µM

CC(=O)c1cccc(NC(=O)C(=O)C(C2OC(=O)c3ccccc32)[N+](=O)[O-])c1 (stereo not drawn)
inactive: 786-0 > 100 µM | A549 > 100 µM | COLO 205 > 100 µM | HCT-116 > 100 µM | HL-60 > 100 µM | IGROV-1 > 100 µM | KM12 > 100 µM | MOLT-4 > 100 µM | OVCAR-4 > 100 µM | RXF 393 > 100 µM | SF-268 > 100 µM | SK-MEL-2 > 100 µM | SK-OV-3 > 100 µM | SR > 100 µM | TK-10 > 100 µM | UO-31 60.1 µM

O=C(O)C(=O)/C=C\c1ccc(Cl)cc1
inactive: 786-0 > 100 µM | A549 > 100 µM | COLO 205 > 100 µM | HCT-116 > 100 µM | HL-60 > 100 µM | IGROV-1 > 100 µM | KM12 > 100 µM | MOLT-4 > 100 µM | OVCAR-4 > 100 µM | OVCAR-8 > 100 µM | RXF 393 > 100 µM | SF-268 > 100 µM | SK-MEL-2 > 100 µM | SK-OV-3 > 100 µM | SR 51.6 µM | TK-10 > 100 µM | UO-31 > 100 µM

O=C(O)CS [THIOGLYCOLIC ACID]
inactive: 786-0 > 100 µM | A549 > 100 µM | COLO 205 > 100 µM | HCT-116 > 100 µM | HL-60 > 100 µM | IGROV-1 > 100 µM | KM12 > 100 µM | MOLT-4 > 100 µM | OVCAR-4 > 100 µM | RXF 393 > 100 µM | SF-268 > 100 µM | SK-MEL-2 > 100 µM | SK-OV-3 > 100 µM | SR > 100 µM | TK-10 > 100 µM | UO-31 > 100 µM
